Patent US20070249670A1, “Glycogen Phosphorylase Inhibitor Compounds and Pharmaceutical Compositions Thereof” (SMITHKLINE BEECHAM CORPORATION, priority 2004, published 2007)
Structures can show the parent of a compound that is named as a salt.

Target: T1, human liver glycogen phosphorylase a (HLGPa) (Homo sapiens, UniProt P06737)
T1 construct: creating a full-length cDNA fused at the 5′ end to codons for methionine-glycine-alanine-histidine; 6xHis tag (leader Met-Gly-Ala-His6-Gly-Gly) (N); made in house; host or cells: E. coli (bacterial expression plasmid pTXK1007LTev)
T1 sequence (P06737 2-847 limits assumed): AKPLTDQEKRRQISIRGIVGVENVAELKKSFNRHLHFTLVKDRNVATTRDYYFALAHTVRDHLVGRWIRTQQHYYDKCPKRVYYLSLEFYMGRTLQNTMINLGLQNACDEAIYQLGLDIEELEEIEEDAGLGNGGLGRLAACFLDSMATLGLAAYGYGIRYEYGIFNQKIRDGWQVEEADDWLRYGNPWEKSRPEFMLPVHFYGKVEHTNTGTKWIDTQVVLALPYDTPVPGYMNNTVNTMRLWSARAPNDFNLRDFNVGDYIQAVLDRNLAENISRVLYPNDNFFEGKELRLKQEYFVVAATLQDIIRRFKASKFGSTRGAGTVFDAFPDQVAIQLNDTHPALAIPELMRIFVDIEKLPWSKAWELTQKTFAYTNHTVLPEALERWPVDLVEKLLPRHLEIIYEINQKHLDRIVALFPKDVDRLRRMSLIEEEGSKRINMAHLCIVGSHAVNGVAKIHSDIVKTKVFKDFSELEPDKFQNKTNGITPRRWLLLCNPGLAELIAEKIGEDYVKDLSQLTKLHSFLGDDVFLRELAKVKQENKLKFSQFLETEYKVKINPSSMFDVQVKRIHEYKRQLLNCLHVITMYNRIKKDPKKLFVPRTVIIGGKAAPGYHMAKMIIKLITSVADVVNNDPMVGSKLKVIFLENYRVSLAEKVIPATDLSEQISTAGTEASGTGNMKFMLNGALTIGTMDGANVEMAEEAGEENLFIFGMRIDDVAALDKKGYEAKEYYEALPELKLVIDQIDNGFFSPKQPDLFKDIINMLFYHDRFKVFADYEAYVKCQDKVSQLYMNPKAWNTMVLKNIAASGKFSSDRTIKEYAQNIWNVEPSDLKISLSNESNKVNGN
Test: Human liver glycogen phosphorylase a enzymatic activity assay (coupled, fluorescent resorufin readout, with and without 10 mM glucose)
Assay type: biochemical

[1] = human liver glycogen phosphorylase a enzymatic activity assay
[2] = human liver glycogen phosphorylase a, table does not say whether with or without 10 mM glucose

| IC50 [1] [nM] | IC50 [2] [nM] | Compound |
| --- | --- | --- |
| 1190 |  | Cc1cccc(C)c1NC(=O)Nc1cc2ccccc2cc1C(=O)N[C@@H](CC(C)C)C(=O)O [Example 24, N-[3-({[(2,6-dimethylphenyl)amino]carbonyl}amino)-2-naphthoyl]-L-leucine] |
| 51 |  | CC[C@H](C)[C@H](NC(=O)c1sc(-c2ccc(OC)cc2)cc1NC(=O)Nc1c(C)cc(C)cc1C)C(=O)O [Example 442, N-{[5-[4-(methyloxy)phenyl]-3-({[(2,4,6-trimethylphenyl)amino]carbonyl}amino)-2-thienyl]carbonyl}-L-isoleucine] |
| 230 |  | O=C(O)C[C@H](NC(=O)c1cc2ccccc2cc1NC(=O)Nc1c(Cl)cccc1Cl)C(=O)O [Example 148, N-{[3-({[(2,6-dichlorophenyl)amino]carbonyl}amino)-2-naphthalenyl]carbonyl}-L-aspartic acid] |
| 134 |  | Cc1cc(C)c(NC(=O)Nc2cc(F)ccc2C(=O)N[C@H](C(=O)O)[C@@H](C)OCc2ccccc2)c(C)c1 [Example 521, N-{[4-fluoro-2-({[(2,4,6-trimethylphenyl)amino]carbonyl}amino)phenyl]carbonyl}-O-(phenylmethyl)-L-threonine] |
| 21 |  | Cc1cc(C2CC2)cc(C)c1NC(=O)Nc1cc(-c2cccc(F)c2)ccc1C(=O)N[C@H](C(=O)O)[C@@H](C)OC(C)(C)C [Example 530, N-{[3-({[(4-Cyclopropyl-2,6-dimethylphenyl)amino]carbonyl}amino)-3′-fluoro-4-biphenylyl]carbonyl}-O-(1,1-dimethylethyl)-L-threonine] |
|  | 6 | Cc1cc(C)c(NC(=O)Nc2cc3ccccc3cc2C(=O)N[C@H](C(=O)O)[C@H]2CCCC(O)C2)c(C)c1 (stereo partly drawn) [Example 359, (2S)-[(1S)-3-hydroxycyclohexyl]({[3-({[(2,4,6-trimethylphenyl)amino]carbonyl}amino)-2-naphthalenyl]carbonyl}amino)ethanoic acid] |
| 3 |  | Cc1cc(C)c(NC(=O)Nc2cc(-c3ccccc3)ccc2C(=O)N[C@H](C(=O)O)[C@@H](C)OC(C)(C)C)c(C)c1 [Example 528, O-(1,1-Dimethylethyl)-N-{[3-({[(2,4,6-trimethylphenyl)amino]carbonyl}amino)-4-biphenylyl]carbonyl}-L-threonine] |
| 9050 |  | COc1cc(NC(=O)Nc2ccccc2Cl)c(C(=O)N[C@@H](Cc2c[nH]c3ccccc23)C(=O)O)cc1OC [Example 77, N-[2-({[(2-chlorophenyl)amino]carbonyl}amino)-4,5-dimethoxybenzoyl]-L-tryptophan trifluoroacetate] |
| 770 |  | O=C(Nc1sc(-c2cccnc2)cc1C(=O)N[C@H](C(=O)O)C1CCCCC1)Nc1c(Cl)cccc1Cl [Example 415, (2S)-cyclohexyl({[2-({[(2,6-dichlorophenyl)amino]carbonyl}amino)-5-(3-pyridinyl)-3-thienyl]carbonyl}amino)ethanoic acid] |
| 27 |  | COc1ccc(-c2cc(C(=O)N[C@H](C(=O)O)C3CCCCC3)c(NC(=O)Nc3c(Cl)cc(OC(F)(F)F)cc3Cl)s2)cc1 [Example 427, (2S)-cyclohexyl[({2-{[({2,6-dichloro-4-[(trifluoromethyl)oxy]phenyl}amino)carbonyl]amino}-5-[4-(methyloxy)phenyl]-3-thienyl}carbonyl)amino]ethanoic acid] |
| 3060 |  | COC(=O)[C@@H](NC(=O)c1cc(Cc2ccccc2)sc1NC(=O)Nc1c(Cl)cccc1Cl)C1CCCCC1 [Example 398, methyl(2S)-cyclohexyl({[2-({[(2,6-dichlorophenyl)amino]carbonyl}amino)-5-(phenylmethyl)-3-thienyl]carbonyl}amino)ethanoate] |
|  | 17400 | Cc1onc(-c2ccccc2)c1NC(=O)Nc1cc2ccccc2cc1C(=O)N[C@H](C(=O)O)C1CCCCC1 [Example 249, (2S)-cyclohexyl({[3-({[(5-methyl-3-phenyl-4-isoxazolyl)amino]carbonyl}amino)-2-naphthalenyl]carbonyl}amino)ethanoic acid] |
|  | 13 | COc1ccc(-c2ccc(C(=O)N[C@H](C(=O)O)[C@@H](C)OC(C)(C)C)c(NC(=O)Nc3c(C)cc(C)cc3C)c2)cc1F [Example 235, O-(1,1-Dimethylethyl)-N-{[3′-fluoro-4′-(methyloxy)-3-({[(2,4,6-trimethylphenyl)amino]carbonyl}amino)-4-biphenylyl]carbonyl}-L-threonine] |
| 2380 |  | Cc1cc(C)c(NC(=O)Nc2sc3c(c2C(=O)N[C@@H](CC(=O)O)C(=O)O)CCCC3)c(C)c1 [Example 133, N-[(2-{[(mesitylamino)carbonyl]amino}-4,5,6,7-tetrahydro-1-benzothien-3-yl)carbonyl]-L-aspartic acid] |
| 220 |  | Cc1cc(C)c(NC(=O)Nc2cc(-c3ccc(OC(F)(F)F)cc3)sc2C(=O)N[C@H](C(=O)O)C2CCCCC2)c(C)c1 [Example 437, (2S)-cyclohexyl({[5-{4-[(trifluoromethyl)oxy]phenyl}-3-({[(2,4,6-trimethylphenyl)amino]carbonyl}amino)-2-thienyl]carbonyl}amino)ethanoic acid] |
| 670 |  | Cc1cccc(C)c1NC(=O)Nc1cc2ccccc2cc1C(=O)N[C@@H](CC(N)=O)C(=O)O [Example 25, N-[3-({[(2,6-dimethylphenyl)amino]carbonyl}amino)-2-naphthoyl]-L-asparagine] |
|  | 470 | Cc1cc(C)c(NC(=O)Nc2cc(-c3ccc(F)c(F)c3)cnc2C(=O)N[C@H](C(=O)O)[C@@H](C)OC(C)(C)C)c(C)c1 [Example 324, N-{[5-(3,4-Difluorophenyl)-3-({[(2,4,6-trimethylphenyl)amino]carbonyl}amino)-2-pyridinyl]carbonyl}-O-(1,1-dimethylethyl)-L-threonine] |
| 450 |  | Cc1cccc(Cl)c1NC(=O)Nc1cc2ccccc2cc1C(=O)N[C@@H](Cc1ccc(O)cc1)C(=O)O [Example 64, N-[3-({[(2-chloro-6-methylphenyl)amino]carbonyl}amino)-2-naphthoyl]-L-tyrosine] |
| 1830 |  | O=C(Nc1cc(-c2ccncc2)sc1C(=O)O)Nc1c(Cl)cccc1Cl [Example 400, 3-({[(2,6-dichlorophenyl)amino]carbonyl}amino)-5-(4-pyridinyl)-2-thiophenecarboxylic acid] |
| 220 |  | Cc1cc(Br)cc(C)c1NC(=O)Nc1cc2ccccc2cc1C(=O)N[C@H](C(=O)O)C1CCCCC1 [Example 458, (2S)-({[3-({[(4-bromo-2,6-dimethylphenyl)amino]carbonyl}amino)-2-naphthalenyl]carbonyl}amino)(cyclohexyl)ethanoic acid] |
| 1630 |  | Cc1cccc(C)c1NC(=O)Nc1cc(F)c(F)cc1C(=O)N[C@H](C(=O)O)C1CCCCC1 [Example 116, (2S)-cyclohexyl{[2-({[(2,6-dimethylphenyl)amino]carbonyl}amino)-4,5-difluorobenzoyl]amino}acetic acid] |
|  | 3 | COc1ccc(-c2ccc(C(=O)N[C@H](C(=O)O)C3CCCCC3)c(NC(=O)Nc3c(C)cc(C)cc3C)c2)cc1OC [Example 229, (2S)-({[3′,4′-Bis(methyloxy)-3-({[(2,4,6-trimethylphenyl)amino]carbonyl}amino)-4-biphenylyl]carbonyl}amino)(cyclohexyl)ethanoic acid] |
| 7 |  | Cc1cc(C)c(NC(=O)Nc2cc(-c3cc(F)cc(F)c3)ccc2C(=O)N[C@H](C(=O)O)[C@@H](C)OC(C)(C)C)c(C)c1 [Example 525, N-{[3′,5′-Difluoro-3-({[(2,4,6-trimethylphenyl)amino]carbonyl}amino)-4-biphenylyl]carbonyl}-O-(1,1-dimethylethyl)-L-threonine] |
| 580 |  | Cc1cccc(Cl)c1NC(=O)Nc1cc2ccccc2cc1C(=O)N1CCC[C@H]1C(=O)O [Example 35, 1-[3-({[(2-chloro-6-methylphenyl)amino]carbonyl}amino)-2-naphthoyl]-L-proline] |
|  | 150 | Cc1cc(C)c(NC(=O)Nc2cc(-c3ccccc3)cnc2C(=O)N[C@H](C(=O)O)C2CCCCC2)c(C)c1 [Example 321, (2S)-Cyclohexyl({[5-phenyl-3-({[(2,4,6-trimethylphenyl)amino]carbonyl}amino)-2-pyridinyl]carbonyl}amino)ethanoic acid] |
| 6800 |  | O=C(Cc1c(Cl)cccc1Cl)Nc1cc2ccccc2cc1C(=O)N[C@H](C(=O)O)C1CCCCC1 [Example 155, (2S)-cyclohexyl{[(3-{[(2,6-dichlorophenyl)acetyl]amino}-2-naphthalenyl)carbonyl]amino}ethanoic acid] |
| 430 |  | Cc1cccc(Cl)c1NC(=O)Nc1cc2ccccc2cc1C(=O)N[C@H](C(=O)O)[C@@H](C)O [Example 37, N-[3-({[(2-chloro-6-methylphenyl)amino]carbonyl}amino)-2-naphthoyl]-L-threonine] |
